Measured values taken from US20100298141A1, “SUBSTITUTED PYRIDINE N-OXIDE HERBICIDES” (E. I. DU PONT DE NEMOURS AND COMPANY, priority 2007, published 2010).

Key:
[1] = tested on: velvetleaf; test: Test A pre-/postemergence greenhouse test; format: in vivo, Abutilon theophrasti; details: for Plant response rating, Velvetleaf: 0 to 100 scale where 0 is no effect and 100 is complete control; for Velvetleaf plant response rating: 0 to 100 scale
In short: (§1)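 Seeds sown in a loam soil–sand blend got a preemergence directed soil spray of compound in a non-phytotoxic solvent mixture containing surfactant. Postemergence sprays of the same formulation went at the same time onto plants 2–10 cm tall at the one- to two-leaf stage. Injury was scored visually against untreated controls after about ten days in the greenhouse.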

[2] = tested on: barnyardgrass; test: Test C flooded paddy test; format: in vivo, Echinochloa crus-galli; details: Flood
In short: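 Ratings were visual and made relative to untreated controls after 13 to 15 greenhouse days.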

[3] = tested on: wheat; test: Test C pre-/postemergence test; format: in vivo, Triticum aestivum; details: for Plant response rating, Wheat: 31 g ai/ha, scale 0 to 100 (0 no effect, 100 complete control)
In short: (§2)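 Compounds in a non-phytotoxic solvent with surfactant applied preemergence to seeded pots and, at the same time, postemergence to plants 2–18 cm tall (1- to 4-leaf stage). Paddy tests: pots flooded to 3 cm, compound applied into the water, depth held throughout.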

[4] = tested on: giant foxtail; test: Test A pre-/postemergence greenhouse test; format: in vivo, Setaria faberi; details: for Plant response rating, Foxtail, Giant: 0 to 100 scale where 0 is no effect and 100 is complete control; for Foxtail, Giant plant response rating: 0 to 100 scale
In short: as §1

[5] = tested on: Russian thistle; test: Test C pre-/postemergence test; format: in vivo, Salsola kali; details: for Plant response rating, Russian Thistle: scale 0 to 100 (0 no effect, 100 complete control)
Excerpt: Seeds of plant species selected from blackgrass (Alopecurus myosuroides), downy brome (Bromus tectorum), green foxtail (Setaria viridis), Italian ryegrass (Lolium multiflorum), wheat (Triticum aestivum), wild oat (Avena fatua), catchweed bedstraw (Galium aparine), Russian thistle (Salsola kali), […] (Cynodon dactylon), Surinam grass (Brachiaria decumbens), cocklebur (Xanthium strumarium), corn (Zea mays), crabgrass (Digitaria sanguinalis), woolly cupgrass (Eriochloa villosa), giant foxtail (Setaria faberii), Goosegrass (Eleusin indica), johnsongrass (Sorghum halepense), kochia (Kochia scoparia), lambsquarters (Chenopodium album), morningglory (Ipomoea coccinea), eastern black nightshade (Solanum ptycanthum), yellow nutsedge (Cyperus esculentus), pigweed (Amaranthus retroflexus), common ragweed (Ambrosia elation), soybean (Glycine max), common (oilseed) sunflower (Helianthus annuus), and velvetleaf (Abutilon theophrasti) were planted and treated preemergence with test chemicals formulated in a non-phytotoxic solvent mixture which included a surfactant. At the same time, plants selected from these crop and weed species and also winter barley (Hordeum vulgare), canarygrass (Phalaris minor), and chickweed (Stellaria media) were treated with postemergence applications of some of the test chemicals formulated in the same manner. Plants ranged in height from 2 to 18 cm (1- to 4-leaf stage) for postemergence treatments. […] At time of treatment, test pots were flooded to 3 cm above the soil surface, treated by application of test compounds directly to the paddy water, and then maintained at that water depth for the duration of the test. […] A dash (-) response means no test result.

[6] = tested on: common ragweed; test: Test C pre-/postemergence test; format: in vivo, Ambrosia elation; details: for Plant response rating, Ragweed: scale 0 to 100 (0 no effect, 100 complete control)
In short: as §2

[7] = Postemergence, 500 g ai/ha, 0 is no effect, 100 is complete control
[8] = Preemergence, 125 g ai/ha, 0 no effect, 100 complete control
[9] = Preemergence, 500 g ai/ha, 0 no effect, 100 complete control
[10] = 250 g ai/ha, scale 0 to 100, 0 no effect, 100 complete control, 13 to 15 days
[11] = 62 g ai/ha, Preemergence, scale 0 to 100
[12] = 125 g ai/ha, preemergence, scale 0 (no effect) to 100 (complete control)
[13] = preemergence, 250 g ai/ha, scale 0 (no effect) to 100 (complete control)
[14] = 31 g ai/ha, scale 0 to 100 (0 no effect, 100 complete control)
[15] = 62 g ai/ha, scale 0 to 100, 0 no effect, 100 complete control, 13 to 15 days
[16] = 125 g ai/ha, scale 0 to 100, 0 no effect, 100 complete control, 13 to 15 days
[17] = Postemergence, 125 g ai/ha, 0 is no effect, 100 is complete control
[18] = 250 g ai/ha, scale 0 to 100 (0 no effect, 100 complete control)
[19] = 62 g ai/ha, preemergence, scale 0 (no effect) to 100 (complete control)
[20] = preemergence, 125 g ai/ha, scale 0 (no effect) to 100 (complete control)
[21] = 31 g ai/ha, Preemergence, scale 0 to 100

Row | Compound | Plant response rating, Velvetleaf ([1]; Postemergence, 125 g ai/ha) | Velvetleaf plant response rating [1, 7] | Velvetleaf plant response rating [1, 8] | Plant response rating, Barnyardgrass [2, 10] | Wheat plant response rating [3, 11] | Plant response rating, Wheat ([3]; Preemergence) | Foxtail, Giant plant response rating [4, 7] | Foxtail, Giant plant response rating [4, 8] | Russian Thistle plant response rating [5, 11] | Plant response rating, Russian Thistle ([5]; Preemergence, 31 g ai/ha) | Ragweed plant response rating [6, 11] | Plant response rating, Ragweed ([6]; Preemergence, 31 g ai/ha) | Plant response rating, Velvetleaf ([1]; Preemergence, 500 g ai/ha) | Plant response rating, Barnyardgrass [2, 14] | Plant response rating, Barnyardgrass [2, 15] | Plant response rating, Barnyardgrass [2, 16] | Plant response rating, Foxtail, Giant ([4]; Preemergence, 500 g ai/ha) | Velvetleaf plant response rating [1, 17] | Plant response rating, Barnyardgrass [2, 18] | Foxtail, Giant plant response rating [4, 17] | also measured
1 | CCc1cc[n+]([O-])c(S(=O)(=O)Cc2c(C(F)(F)F)nn(C)c2OC(F)F)c1 [Compound 102] | 70 | 90 | 70 | 0 | 0 | 0 | 90 | 90 | 100 | 100 | 80 | 75 |  |  |  |  |  |  |  |  | Velvetleaf plant response rating [1, 9]: 100; Plant response rating, Barnyardgrass ([2]; 62 g ai/ha, scale 0 to 100 (0 no effect, 100 complete control)): 0; Wheat plant response rating [3, 12]: 40; Wheat plant response rating [3, 13]: 90; Plant response rating, Foxtail, Giant ([4]; Postemergence, 125 g ai/ha): 80; Foxtail, Giant plant response rating [4, 9]: 100; Russian Thistle plant response rating [5, 12]: 100; Russian Thistle plant response rating [5, 13]: 100; Ragweed plant response rating [6, 12]: 85; Ragweed plant response rating [6, 13]: 95
2 | Cn1nc(C(F)(F)F)c(C[S+]([O-])c2ccc(F)c[n+]2[O-])c1Cl (stereo not shown) [Compound 54] | 10 | 70 | 30 | 80 |  | 0 | 80 | 80 | 30 | 0 | 0 | 0 | 70 | 0 | 20 | 65 | 90 |  |  |  | Wheat plant response rating [3, 12]: 40; Plant response rating, Foxtail, Giant ([4]; Postemergence, 125 g ai/ha): 60; Russian Thistle plant response rating [5, 12]: 100; Russian Thistle plant response rating [5, 13]: 100; Ragweed plant response rating [6, 12]: 5; Ragweed plant response rating [6, 13]: 10
3 | Cc1cc[n+]([O-])c(S(=O)(=O)C(C)c2c(C(F)(F)F)nn(C)c2Cl)c1 (racemic) [Compound 14] |  | 60 | 0 |  |  |  | 80 | 90 |  |  |  |  | 60 | 0 | 0 | 60 | 100 | 0 | 100 | 70 | Wheat plant response rating [3, 19]: 20; Plant response rating (0 to 100), Wheat ([3]; Preemergence, 250 g ai/ha): 80; Wheat plant response rating [3, 20]: 50; Russian Thistle plant response rating [5, 21]: 80; Russian Thistle plant response rating [5, 19]: 100; Plant response rating (0 to 100), Russian Thistle ([5]; Preemergence, 250 g ai/ha): 100; Russian Thistle plant response rating [5, 20]: 100; Ragweed plant response rating [6, 21]: 0; Ragweed plant response rating [6, 19]: 85; Plant response rating (0 to 100), Ragweed ([6]; Preemergence, 250 g ai/ha): 100; Ragweed plant response rating [6, 20]: 85
4 | Cn1nc(C(F)(F)F)c(C[S+]([O-])c2cc(C(C)(C)C)cc[n+]2[O-])c1OC(F)F (racemic) [Compound 24] |  | 60 | 70 |  | 40 | 0 | 70 | 100 | 0 |  | 70 | 0 | 100 | 0 | 30 | 30 | 100 | 40 | 35 | 30 | 
5 | CC(c1c(C(F)(F)F)nn(C)c1OC(F)F)S(=O)(=O)c1cc(C(C)(C)C)cc[n+]1[O-] (racemic) [Compound 26] |  | 0 | 0 |  | 0 | 0 | 30 | 90 | 50 | 0 | 20 | 0 | 70 | 0 | 0 | 20 | 100 | 0 | 80 | 0 | 
6 | Cn1nc(C(F)(F)F)c(C(Cl)S(=O)(=O)c2cccc[n+]2[O-])c1Cl (stereo not shown) [Compound 12] |  | 0 | 0 |  |  |  | 70 | 80 |  |  |  |  | 0 | 0 | 50 | 80 | 100 | 0 | 85 | 50 | Wheat plant response rating [3, 19]: 0; Plant response rating (0 to 100), Wheat ([3]; Preemergence, 250 g ai/ha): 20; Wheat plant response rating [3, 20]: 0; Russian Thistle plant response rating [5, 21]: 100; Russian Thistle plant response rating [5, 19]: 100; Plant response rating (0 to 100), Russian Thistle ([5]; Preemergence, 250 g ai/ha): 100; Russian Thistle plant response rating [5, 20]: 100; Ragweed plant response rating [6, 21]: 0; Ragweed plant response rating [6, 19]: 0; Plant response rating (0 to 100), Ragweed ([6]; Preemergence, 250 g ai/ha): 20
